Assay results: patent US20240410831A1, “Multi-Mode Zinc-Selective Emission-Ratiometric Fluorescent Probes for Biological Application” (Georgia Tech Research Corporation, priority 2023, published 2024)

Tests used:
[1] = Molar ratio titration with Zn(OTf)2 in methanol (absorption and fluorescence); format: physicochemical; details: for fluorescence emission maximum: excitation at 395 nm
Protocol: To prevent solution aggregation of the charge-neutral compounds exemplified by Formula I, Formula II, and/or a derivative thereof (e.g., for example probe 8) in PIPES buffer, the initial solution characterization was conducted in analytical grade MeOH. […] Consistent with an increased ground- and excited state polarization upon Zn(II) complexation, the absorption maximum is red-shifted by 34 nm from 376 nm to 410 nm. Sharp isosbestic points at 306 nm and 395 nm, as well as saturation at an equimolar Zn(II) concentration are indicative of a well-defined solution equilibrium involving only the free probe 8 and a discrete Zn(II)-complex with 1:1 metal-ligand stoichiometry.
Similarly, the fluorescence emission maximum of Formula I, Formula II, and/or a derivative thereof (e.g., for example probe 8) is red-shifted from 460 nm to 513 nm upon Zn(II)-binding. […] To provide a direct comparison with previous probes, probe 8 was also analyzed in aqueous buffer containing DMPC/DMPG liposomes that mimic the lipid bilayers present in cells.
A solution of Formula I, Formula II, and/or a derivative thereof (e.g., for example probe 8) (10 μM) in analytical grade MeOH prepared in a quartz cuvette with a 1-cm pathlength was titrated with Zn(OTf)2 (from a 0.3 mM aqueous stock solution) in 1.0 μM (0.1 molar equiv.) increments. After each aliquot of Zn(II), the solution was equilibrated for 1 minute by magnetic stirring, and an absorbance (spectral window: 250-500 nm) and fluorescence spectrum (excitation at 395 nm, spectral window 405-705 nm) were acquired. In another embodiment, a solution of Formula I, Formula II, and/or a derivative thereof (e.g., for example probe 8 in FIG. 4H) (10 PM) in Chelex®-PIPES buffer (10 mM, 0.1 M KCl, pH 7.0, 25° C.) containing 100 μM of liposomes (4:1 mixture of DMPC and DMPG) prepared in a quartz cuvette with a 1-cm pathlength was titrated with Zn(OTf)2 (from a 0.3 mM aqueous stock solution) in 1.0 μM (0.1 molar equiv.) increments. After each aliquot of Zn(II), the solution was equilibrated for 1 minute by magnetic stirring, and a fluorescence spectrum (excitation: 405 nm, spectral window 420-700 nm) was acquired.

[2] = Fluorometric Zn(II) titration in PIPES buffer with DMPC:DMPG liposomes; format: physicochemical; details: pH 7.0 buffer, 100 μM liposomes, excitation at 405 nm
Protocol: To investigate the capability of Formula I, Formula II, and/or a derivative thereof (e.g., for example probe 8) as a dual-mode excitable Zn(II)-selective fluorescent indicator, fluorometric Zn(II)-titrations were performed with excitation at 405 nm. Comprehensive spectroscopic analysis of Formula I, Formula II, and/or a derivative thereof (e.g., for example probe 8) was performed in the presence of liposomes as a biological model-membranes composed of a 4:1 ratio of zwitterionic dimyristoyl […] (DMPC) and anionic dimyristoyl phosphatidylglycerol (DMPG). The probe was directly diluted from a DMSO stock solution into the pH 7.0 buffer containing 100 μM liposomes. […]
A solution of Formula I, Formula II, and/or a derivative thereof (e.g., for example probe 8) (10 μM) in analytical grade MeOH prepared in a quartz cuvette with a 1-cm pathlength was titrated with Zn(OTf)2 (from a 0.3 mM aqueous stock solution) in 1.0 μM (0.1 molar equiv.) increments. After each aliquot of Zn(II), the solution was equilibrated for 1 minute by magnetic stirring, and an absorbance (spectral window: 250-500 nm) and fluorescence spectrum (excitation at 395 nm, spectral window 405-705 nm) were acquired. […] After each aliquot of Zn(II), the solution was equilibrated for 1 minute by magnetic stirring, and a fluorescence spectrum (excitation: 405 nm, spectral window 420-700 nm) was acquired.

COc1ccc2c(c1)C(C)(C)c1nc(-c3cccc(CN(Cc4ncccn4)Cc4ncccn4)n3)sc1-2 [probe 8]
red shift of absorption maximum upon Zn(II) complexation [1]: 34 nm
absorption maximum ([1]; Zn(II) complex): 410 nm
fluorescence emission maximum ([1]; Zn(II)-bound): 513 nm
absorption maximum ([1]; free probe, 10 μM): 376 nm
fluorescence emission maximum ([1]; free probe): 460 nm
emission maximum ([2]; after Zn(II) addition): 515 nm
emission maximum ([2]; free probe): 480 nm
